Measured values: ChEMBL document CHEMBL1201862, “PubChem BioAssay data set” (2004)
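1) Cells in 96-well plates. 2) Compound, 48 h, 5 concentrations. 3) Linear interpolation between surrounding doses. 4) Unreached endpoint = highest concentration. GI50 = concentration required for 50% inhibition of growth.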 Activity calls are given as the source filed them. Rule as the data show it: active = GI50 up to about 1.1 µM and inactive = higher.

Columns and labels:
Experiment in all cases: NCI tumour cell line growth inhibition, 48 h
786-0 = tested on: 786-0
A498 = tested on: A498
A549 = tested on: A549
ACHN = tested on: ACHN
CAKI-1 = tested on: CAKI-1
CCRF-CEM = tested on: CCRF-CEM
COLO 205 = tested on: COLO 205
DLD-1 = tested on: DLD-1
DMS-114 = tested on: DMS-114
DMS-273 = tested on: DMS-273
EKVX = tested on: EKVX
HCC 2998 = tested on: HCC 2998
HCT-116 = tested on: HCT-116
HCT-15 = tested on: HCT-15
HL-60 = tested on: HL-60
HOP-18 = tested on: HOP-18
HOP-62 = tested on: HOP-62
HOP-92 = tested on: HOP-92
HT-29 = tested on: HT-29
IGROV-1 = tested on: IGROV-1
K562 = tested on: K562
KM-20L2 = tested on: KM-20L2
KM12 = tested on: KM12
LOX IMVI = tested on: LOX IMVI
LXFL 529 = tested on: LXFL 529
M14 = tested on: M14
M19-MEL = tested on: M19-MEL
MOLT-4 = tested on: MOLT-4
Malme-3M = tested on: Malme-3M
NCI-H226 = tested on: NCI-H226
NCI-H460 = tested on: NCI-H460
NCI-H522 = tested on: NCI-H522
OVCAR-3 = tested on: OVCAR-3
OVCAR-4 = tested on: OVCAR-4
OVCAR-8 = tested on: OVCAR-8
RPMI-8226 = tested on: RPMI-8226
SF-268 = tested on: SF-268
SF-295 = tested on: SF-295
SF-539 = tested on: SF-539
SK-MEL-5 = tested on: SK-MEL-5
SK-OV-3 = tested on: SK-OV-3
SN12C = tested on: SN12C
SNB-19 = tested on: SNB-19
SNB-75 = tested on: SNB-75
SNB-78 = tested on: SNB-78
SW-620 = tested on: SW-620
TK-10 = tested on: TK-10
U-251 = tested on: U-251
UACC-257 = tested on: UACC-257
UACC-62 = tested on: UACC-62
UO-31 = tested on: UO-31
XF498 = tested on: XF498
BT-549 = tested on: BT-549
DU-145 = tested on: DU-145
Hs-578T = tested on: Hs-578T
MCF7 = tested on: MCF7
MDA-MB-231 = tested on: MDA-MB-231
MDA-MB-435 = tested on: MDA-MB-435
MDA-N = tested on: MDA-N
NCI-H23 = tested on: NCI-H23
NCI/ADR-RES = tested on: NCI/ADR-RES
OVCAR-5 = tested on: OVCAR-5
PC-3 = tested on: PC-3
RXF 393 = tested on: RXF 393
SK-MEL-28 = tested on: SK-MEL-28
SK-MEL-2 = tested on: SK-MEL-2
SR = tested on: SR
T47D = tested on: T47D

For `O=C(Nc1ccccc1)n1cc(-c2ccccn2)c(N2CCOCC2)n1`, the GI50 (786-0) was 4490 nM (inactive), the GI50 (A498) was 4110 nM (inactive) and the GI50 (A549) was 18800 nM (inactive). The GI50 (ACHN) was 36600 nM (inactive), the GI50 (CAKI-1) was 13000 nM (inactive) and the GI50 (CCRF-CEM) was 5480 nM (inactive). For the same compound, the GI50 (COLO 205) was 5140 nM (inactive), the GI50 (DLD-1) was 6610 nM (inactive) and the GI50 (DMS-114) was 5360 nM (inactive). The GI50 (DMS-273) was 3440 nM (inactive), the GI50 (EKVX) was > 100000 nM (inactive) and the GI50 (HCC 2998) was 21700 nM (inactive). The GI50 (HCT-116) was 4290 nM (inactive), the GI50 (HCT-15) was 4470 nM and the GI50 (HL-60) was 2440 nM (inactive). The GI50 (HOP-18) was > 100000 nM (inactive), the GI50 (HOP-62) was 6590 nM (inactive) and the GI50 (HOP-92) was 16900 nM (inactive). For the same compound, the GI50 (HT-29) was 2690 nM (inactive), the GI50 (IGROV-1) was 12000 nM (inactive) and the GI50 (K562) was 3580 nM (inactive). The GI50 (KM-20L2) was 2680 nM (inactive), the GI50 (KM12) was 1790 nM (inactive) and the GI50 (LOX IMVI) was 5750 nM (inactive). For the same compound, the GI50 (LXFL 529) was 7890 nM (inactive), the GI50 (M14) was 8910 nM (inactive) and the GI50 (M19-MEL) was 6610 nM (inactive). The GI50 (MOLT-4) was 4150 nM (inactive), the GI50 (Malme-3M) was 2540 nM (inactive) and the GI50 (NCI-H226) was 23800 nM (inactive). For the same compound, the GI50 (NCI-H460) was 4190 nM (inactive), the GI50 (NCI-H522) was 2560 nM (inactive) and the GI50 (OVCAR-3) was 2120 nM (inactive). For the same compound, the GI50 (OVCAR-4) was > 100000 nM (inactive), the GI50 (OVCAR-8) was 46000 nM (inactive) and the GI50 (RPMI-8226) was 4270 nM (inactive). For the same compound, the GI50 (SF-268) was > 100000 nM (inactive), the GI50 (SF-295) was 1900 nM (inactive) and the GI50 (SF-539) was 6730 nM (inactive). The GI50 (SK-MEL-5) was 6040 nM (inactive), the GI50 (SK-OV-3) was 9840 nM (inactive) and the GI50 (SN12C) was 35200 nM (inactive). For the same compound, the GI50 (SNB-19) was 9570 nM (inactive), the GI50 (SNB-75) was 3780 nM (inactive) and the GI50 (SNB-78) was 24900 nM (inactive). For the same compound, the GI50 (SW-620) was 5850 nM (inactive), the GI50 (TK-10) was > 100000 nM (inactive) and the GI50 (U-251) was 4940 nM (inactive). The GI50 (UACC-257) was 17700 nM (inactive), the GI50 (UACC-62) was 5620 nM (inactive) and the GI50 (UO-31) was 11800 nM (inactive). The GI50 (XF498) was 9230 nM (inactive).
In the case of `CN(C)CCCCCNc1c2ccccc2nc2cccc([N+](=O)[O-])c12`, the GI50 (786-0) was 1.33 nM (active), the GI50 (A498) was 2.58 nM (active) and the GI50 (A549) was 0.685 nM (active). The GI50 (ACHN) was 0.766 nM (active), the GI50 (BT-549) was 0.946 nM (active) and the GI50 (CAKI-1) was 2.29 nM (active). For the same compound, the GI50 (CCRF-CEM) was 24 nM (active), the GI50 (COLO 205) was 0.524 nM (active) and the GI50 (DLD-1) was 3.42 nM (active). For the same compound, the GI50 (DMS-114) was 2.42 nM (active), the GI50 (DMS-273) was 1.97 nM (active) and the GI50 (DU-145) was 0.404 nM (active). For the same compound, the GI50 (EKVX) was 4.02 nM (active), the GI50 (HCC 2998) was 3.31 nM (active) and the GI50 (HCT-116) was 0.74 nM (active). The GI50 (HL-60) was 1.43 nM (active), the GI50 (HOP-18) was 27 nM (active) and the GI50 (HOP-62) was 1.49 nM (active). For the same compound, the GI50 (HOP-92) was 3.29 nM (active), the GI50 (HT-29) was 1.1 nM (active) and the GI50 (Hs-578T) was 1.97 nM (active). The GI50 (IGROV-1) was 2.2 nM (active), the GI50 (K562) was 0.986 nM (active) and the GI50 (KM-20L2) was 3.6 nM (active). The GI50 (KM12) was 9.57 nM (active), the GI50 (LOX IMVI) was 2.89 nM (active) and the GI50 (LXFL 529) was 11.5 nM (active). For the same compound, the GI50 (M14) was 1.46 nM (active), the GI50 (M19-MEL) was 5.12 nM (active) and the GI50 (MCF7) was 5.83 nM (active). The GI50 (MDA-MB-231) was 0.32 nM (active), the GI50 (MDA-MB-435) was 0.2 nM (active) and the GI50 (MDA-N) was 0.187 nM (active). For the same compound, the GI50 (MOLT-4) was 0.807 nM (active), the GI50 (Malme-3M) was 1.85 nM (active) and the GI50 (NCI-H226) was 21.4 nM (active). The GI50 (NCI-H23) was 0.785 nM (active), the GI50 (NCI-H460) was 0.223 nM (active) and the GI50 (NCI/ADR-RES) was 1.19 nM (active). The GI50 (OVCAR-3) was 1.46 nM (active), the GI50 (OVCAR-4) was 0.653 nM (active) and the GI50 (OVCAR-5) was 1.82 nM (active). For the same compound, the GI50 (OVCAR-8) was 1.77 nM (active), the GI50 (PC-3) was 0.313 nM (active) and the GI50 (RPMI-8226) was 0.42 nM (active). The GI50 (RXF 393) was 3.7 nM (active), the GI50 (SF-268) was 1.18 nM (active) and the GI50 (SF-295) was 1.05 nM (active). The GI50 (SF-539) was 3.6 nM (active), the GI50 (SK-MEL-28) was 4.81 nM (active) and the GI50 (SK-MEL-2) was 1.07 nM (active). The GI50 (SK-MEL-5) was 1.54 nM (active), the GI50 (SK-OV-3) was 6.07 nM (active) and the GI50 (SN12C) was 1.86 nM (active). For the same compound, the GI50 (SNB-19) was 4.13 nM (active), the GI50 (SNB-75) was 1.63 nM (active) and the GI50 (SNB-78) was 5.65 nM (active). The GI50 (SR) was 0.447 nM (active), the GI50 (SW-620) was 0.877 nM (active) and the GI50 (T47D) was 9.73 nM (active). For the same compound, the GI50 (TK-10) was 3.37 nM (active), the GI50 (U-251) was 1.1 nM (active) and the GI50 (UACC-257) was 9.18 nM (active). The GI50 (UACC-62) was 1.83 nM (active) and the GI50 (XF498) was 2.77 nM (active).
